Data published in patent US9637469B2, “Pyridine derivative” (Teijin Pharma Limited, priority 2012, dated 2017).
pIC50: −log10 of the molar value.

Molecular target: T1, human URAT1 (Homo sapiens, UniProt Q96S37)
T1 construct: Full-length cDNA of human URAT1 (hURAT1)
T1 sequence (Q96S37 1-553): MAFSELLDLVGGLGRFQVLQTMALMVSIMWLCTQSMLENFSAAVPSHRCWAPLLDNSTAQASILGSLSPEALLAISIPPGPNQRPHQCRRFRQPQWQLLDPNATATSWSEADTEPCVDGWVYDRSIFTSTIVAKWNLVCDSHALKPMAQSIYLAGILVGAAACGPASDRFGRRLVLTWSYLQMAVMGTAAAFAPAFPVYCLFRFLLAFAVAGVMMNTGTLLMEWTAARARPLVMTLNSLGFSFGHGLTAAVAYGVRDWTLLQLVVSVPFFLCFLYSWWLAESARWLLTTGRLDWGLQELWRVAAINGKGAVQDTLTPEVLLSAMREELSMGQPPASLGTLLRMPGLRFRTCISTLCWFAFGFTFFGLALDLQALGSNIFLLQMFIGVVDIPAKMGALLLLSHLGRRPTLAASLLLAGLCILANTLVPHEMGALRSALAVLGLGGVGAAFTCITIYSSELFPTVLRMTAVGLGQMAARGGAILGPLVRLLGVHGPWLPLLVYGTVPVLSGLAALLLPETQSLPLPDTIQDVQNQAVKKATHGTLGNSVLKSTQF
Test: Test for inhibition of uric acid transport using human URAT1-expressing cells;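 further: three stars up to 0.2 µM two stars 0.2-2 µM one star 2-20 µM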
Assay type: cell-based
Conditions: HEK 293 cells expressing human URAT1; 14C-labeled uric acid 25 μM; uptake 37° C. for 5 min
Method in brief: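 HEK293 cells stably transfected with full-length hURAT1, preincubated 10 min at 37 °C in HBSS with NaCl replaced by Na gluconate. Uptake of 25 μM ¹⁴C-uric acid with compound ran 5 min at 37 °C, then scintillation counting. IC50 derived from % of DMSO-control URAT1-specific uptake.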

Which “Inhibitory Activity (IC50 of uric acid transport inhibition)” value (“Inhibitory Activity” for short) does the source give for O=C(O)c1ccc(-c2cncc(F)c2)n1Cc1cc(Cl)ccc1Cl [Compound B14, 1-(2,5-dichlorobenzyl)-2-(5-fluoropyridin-3-yl)-1H-pyrrole-5-carboxylic acid] here?
Its value is “* * *”.

CCCN1CCN(Cc2nc(-c3cncc(Cl)c3)n(Cc3cc(Cl)ccc3Cl)c2C(=O)O)CC1 [Compound A202, 2-(5-chloropyridin-3-yl)-1-(2,5-dichlorobenzyl)-4-((4-propylpiperazin-1-yl)methyl)-1H-imidazole-5-carboxylic acid] was tested. Which “Inhibitory Activity” value did it give?
The value was “* * *”.

With Cc1ccc(C)c(Cn2c(C(=O)O)ccc2-c2cccnc2)c1 [Compound B12, 1-(2,5-dimethylbenzyl)-2-(pyridin-3-yl)-1H-pyrrole-5-carboxylic acid] as the molecule, how does the “Inhibitory Activity” value read?
The value was “* * *”.

With CCN(CC)Cc1nc(-c2cncc(Cl)c2)n(Cc2cc(Cl)ccc2Cl)c1C(=O)O [Compound A193, 2-(5-chloropyridin-3-yl)-1-(2,5-dichlorobenzyl)-4-((diethylamino)methyl)-1H-imidazole-5-carboxylic acid] as the molecule, how does the “Inhibitory Activity” value read?
The value was “* * *”.

For O=C(NS(=O)(=O)C1CC1)c1c(C2CC2)nc(-c2cccnc2)n1Cc1cccc2ccsc12 [Compound A118, 1-(benzo[b]thiophen-7-ylmethyl)-4-cyclopropyl-N-(cyclopropylsulfonyl)-2-(pyridin-3-yl)-1H-imidazole-5-carboxamide], which “Inhibitory Activity” value is on record?
Its value is “* *”.

For Cc1nc(-c2cncc([N+](=O)[O-])c2)n(Cc2cc(Cl)ccc2Cl)c1C(=O)O [Compound A167, 1-(2,5-dichlorobenzyl)-4-methyl-2-(5-nitropyridin-3-yl)-1H-imidazole-5-carboxylic acid], which “Inhibitory Activity” value is on record?
Its value is “* * *”.

O=C(O)c1ccc(-c2cncc(F)c2)n1Cc1csc2cccc(Cl)c12 [Compound B16, 1-((4-chlorobenzo[b]thiophen-3-yl)methyl)-2-(5-fluoropyridin-3-yl)-1H-pyrrole-5-carboxylic acid] was tested. Which “Inhibitory Activity” value did it give?
Its value is “* * *”.

O=C1OCc2nc(-c3cncc(Cl)c3)n(Cc3cc(Cl)ccc3Cl)c21 [Compound A221, 2-(5-chloropyridin-3-yl)-1-(2,5-dichlorobenzyl)-1H-furo[3,4-d]imidazol-6(4H)-one] was tested. Which “Inhibitory Activity” value did it give?
The value was “* * *”.

How did the “Inhibitory Activity” value turn out when O=C(O)c1cnc(-c2cncc(Br)c2)n1Cc1cc(Cl)ccc1Cl [Compound A205, 2-(5-bromopyridin-3-yl)-1-(2,5-dichlorobenzyl)-1H-imidazole-5-carboxylic acid] was run?
The value was “* * *”.

Which “Inhibitory Activity” value does the source give for Cc1nc(-c2cncc(Cl)c2)n(Cc2cc(Cl)sc2Cl)c1C(=O)O [Compound A226] here?
Its value is “* * *”.

For CC(=O)c1cncc(-c2nc(C)c(C(=O)O)n2Cc2cc(Cl)ccc2Cl)c1 [Compound A183, 2-(5-acetylpyridin-3-yl)-1-(2,5-dichlorobenzyl)-4-methyl-1H-imidazole-5-carboxylic acid], which “Inhibitory Activity” value is on record?
The value was “* * *”.

How did the “Inhibitory Activity” value turn out when Cc1nc(-c2cccnc2)n(Cc2csc3cccc(Br)c23)c1C(=O)O [Compound A8, 1-((4-bromobenzo[b]thiophen-3-yl)methyl)-4-methyl-2-(pyridin-3-yl)-1H-imidazole-5-carboxylic acid] was run?
The value was “* *”.

Which “Inhibitory Activity” value does the source give for Cc1nc(-c2cncc(OC(C)C)c2)n(Cc2cc(Cl)ccc2Cl)c1C(=O)O [Compound A175, 1-(2,5-dichlorobenzyl)-2-(5-isopropoxypyridin-3-yl)-4-methyl-1H-imidazole-5-carboxylic acid] here?
Its value is “* *”.

Which “Inhibitory Activity” value does the source give for CCOc1cncc(-c2nc(C)c(C(=O)O)n2Cc2cc(Cl)ccc2Cl)c1 [Compound A174, 1-(2,5-dichlorobenzyl)-2-(5-ethoxypyridin-3-yl)-4-methyl-1H-imidazole-5-carboxylic acid] here?
The value was “* * *”.

With O=C(O)c1ccc(-c2cncc(F)c2)n1Cc1cccc2ccsc12 [Compound B22, 1-(benzo[b]thiophen-7-ylmethyl)-2-(5-fluoropyridin-3-yl)-1H-pyrrole-5-carboxylic acid] as the molecule, how does the “Inhibitory Activity” value read?
Its value is “* * *”.

Cc1nc(-c2cccnc2)n(Cc2sc(Cl)cc2Cl)c1C(=O)O [Compound A80, 1-((2,4-dichlorothiophen-5-yl)methyl)-4-methyl-2-(pyridin-3-yl)-1H-imidazole-5-carboxylic acid] was tested. Which “Inhibitory Activity” value did it give?
Its value is “* *”.

O=C(O)c1c(C2CC2)nc(-c2cccnc2)n1Cc1cccc2ccccc12 [Compound A11, 4-cyclopropyl-1-(napthalen-1-ylmethyl)-2-(pyridin-3-yl)-1H-imidazole-5-carboxylic acid] was tested. Which “Inhibitory Activity” value did it give?
The value was “* *”.

With Cc1nc(-c2cncc(F)c2)n(Cc2csc3cccc(Cl)c23)c1C(=O)O [Compound A141, 1-((4-chlorobenzo[b]thiophen-3-yl)methyl)-2-(5-fluoropyridin-3-yl)-4-methyl-1H-imidazole-5-carboxylic acid] as the molecule, how does the “Inhibitory Activity” value read?
Its value is “* *”.

How did the “Inhibitory Activity” value turn out when O=C(O)c1c(C2CC2)nc(-c2cncc(Cl)c2)n1Cc1cccc2ccccc12 [Compound A145, 2-(5-chloropyridin-3-yl)-4-cyclopropyl-1-(naphthalen-1-ylmethyl)-1H-imidazole-5-carboxylic acid] was run?
The value was “* * *”.

With Cc1nc(-c2cncc(Cl)c2)n(Cc2csc3cccc(Cl)c23)c1C(=O)O [Compound A142, 1-((4-chlorobenzo[b]thiophen-3-yl)methyl)-2-(5-chloropyridin-3-yl)-4-methyl-1H-imidazole-5-carboxylic acid] as the molecule, how does the “Inhibitory Activity” value read?
The value was “* * *”.

Clc1cncc(-c2ncc(-c3nnn[nH]3)n2Cc2cc(Cl)ccc2Cl)c1 [Compound A237, 3-chloro-5-(1-(2,5-dichlorobenzyl)-5-(1H-tetrazol-5-yl)-1H-imidazol-2-yl)pyridine] was tested. Which “Inhibitory Activity” value did it give?
Its value is “* * *”.

For Cc1nc(-c2ccncc2)n(Cc2cc(Cl)ccc2Cl)c1C(=O)O [Compound A244, 1-(2,5-dichlorobenzyl)-4-methyl-2-(pyridin-4-yl)-1H-imidazole-5-carboxylic acid], which “Inhibitory Activity” value is on record?
The value was “* *”.

Cc1nc(Oc2cncc(Br)c2)n(Cc2cc(Cl)ccc2Cl)c1C(=O)O [Compound A251, 2-((5-bromopyridin-3-yl)oxy)-1-(2,5-dichlorobenzyl)-4-methyl-1H-imidazole-5-carboxylic acid] was tested. Which “Inhibitory Activity” value did it give?
The value was “* * *”.

With O=C(O)c1c(C2CC2)nc(-c2cncc(F)c2)n1Cc1cc(Cl)ccc1Cl [Compound A155, 4-cyclopropyl-1-(2,5-dichlorobenzyl)-2-(5-fluoropyridin-3-yl)-1H-imidazole-5-carboxylic acid] as the molecule, how does the “Inhibitory Activity” value read?
Its value is “* * *”.

Which “Inhibitory Activity” value does the source give for O=C(O)c1ccc(-c2cccnc2)n1Cc1csc2cccc(Br)c12 [Compound B3, 1-((4-bromobenzo[b]thiophen-3-yl)methyl)-2-(pyridin-3-yl)-1H-pyrrole-5-carboxylic acid] here?
The value was “* * *”.

Which “Inhibitory Activity” value does the source give for Cc1nc(-c2cncc(OCC3CCCCC3)c2)n(Cc2cc(Cl)ccc2Cl)c1C(=O)O [Compound A189, 2-(5-(cyclohexylmethoxy)pyridin-3-yl)-1-(2,5-dichlorobenzyl)-4-methyl-1H-imidazole-5-carboxylic acid] here?
Its value is “* *”.

How did the “Inhibitory Activity” value turn out when Cc1cncc(-c2nc(Cl)c(C(=O)O)n2Cc2cc(Cl)ccc2Cl)c1 [Compound A219, 4-chloro-1-(2,5-dichlorobenzyl)-2-(5-methylpyridin-3-yl)-1H-imidazole-5-carboxylic acid] was run?
The value was “* * *”.

Same assay, conditions: HEK 293 cells expressing human URAT1; 14C-labeled uric acid 25 μM; uptake 37° C. for 5 min; read-out: Inhibitory Activity (IC50 of uric acid transport inhibition)

With Cc1nc(-c2cccnc2)n(Cc2cc(Cl)ccc2Cl)c1C(=O)NS(C)(=O)=O [Compound A111, 1-(2,5-dichlorobenzyl)-4-methyl-N-(methylsulfonyl)-2-(pyridin-3-yl)-1H-imidazole-5-carboxamide] as the molecule, how does the pIC50 read?
The pIC50 was 4.70 to 5.70.

COc1cccc(F)c1Oc1cncc(-c2nc(C)c(C(=O)O)n2Cc2cc(Cl)ccc2Cl)c1 [Compound A184] was tested. Which pIC50 did it give?
Its pIC50 is 4.70 to 5.70.

O=C(O)c1c(C(F)(F)F)nc(-c2cccnc2)n1Cc1csc2cccc(C(F)(F)F)c12 [Compound A32] was tested. Which pIC50 did it give?
The pIC50 was 4.70 to 5.70.

Cc1ccccc1Cn1c(-c2cccnc2)nc(C)c1C(=O)O [Compound A57] was tested. Which pIC50 did it give?
The pIC50 was 4.70 to 5.70.

With CCc1ccccc1Cn1c(-c2cccnc2)nc(C)c1C(=O)O [Compound A59] as the molecule, how does the pIC50 read?
The pIC50 was 4.70 to 5.70.

With O=C(O)c1c(CN2CCC(O)CC2)nc(-c2cncc(Cl)c2)n1Cc1cc(Cl)ccc1Cl [Compound A198] as the molecule, how does the pIC50 read?
Its pIC50 is 4.70 to 5.70.

With Cc1nc(-c2cccnc2)n(Cc2csc3ccccc23)c1C(=O)O [Compound A16] as the molecule, how does the pIC50 read?
The pIC50 was 4.70 to 5.70.
